In general, inhibition refers to the share of the control response that was lost under treatment. Low values mean a response near the control, high ones a response far below the control. In general, IC50 refers to the concentration needed to halve the response being measured.

Results on 26 compounds are retold here after US9199965B2, “Benzoimidazole derivatives and pharmaceutical composition comprising the same” (Daewoong Co., Ltd., priority 2005, dated 2015).

Test [1] has as its target T1, rat TRPV1 (Rattus norvegicus, UniProt O35433).
T1 construct: expressed in transfected cells; host or cells: HEK293
Nature of the test: Assay for inhibitory activity against VR1 patch clamp activity (capsaicin current, inside-out patch). Type of test: cell-based. As to conditions: 1 μM compound with 10 μM capsaicin; rat TRPV1-transfected HEK293, inside-out patch; relative to capsaicin current before compound. As for the experimental part:
Each of the compounds synthesized in the examples were dissolved in dimethyl sulfoxide (DMSO) at a concentration of 10 mM. For use in the assay for inhibitory activity against patch clamp activity, the solutions were diluted to a concentration of 1 μM with the same physiological saline as in the pipette solution of Table 1, below.
2) Assay for Inhibitory Activity Against VR1 Patch Clamp Activity
In this experiment, changes in VR1 activity were recorded in current using an electrophysiological technique.
For use in this experiment, a rat TRPV1 cDNA was transfected into a subcultured HEK293 strain with the aid of lipofectamin.
The rat TRPV1 gene-transfected HEK293 cells were detached from the cell culture dishes with trypsin and distributed on a patch clamp recording chamber.
A cover glass slip on the bottom of the patch clamp recording chamber was treated for 15 min or longer with a […] poly-L-lysine solution so that the HEK cells would readily adhere thereto. Cellular membranes were ruptured at room temperature (˜25° C.) from randomly selected HEK cells to perform an inside-out patch clamp technique. 10 μM of capsaicin was fed into the chamber (cytoplasmic side) to activate a capsaicin current through the VR1. When the capsaicin current reached a stable stage, each compound was added along with 10 μM of capsaicin to record the inhibitory activity of the compounds with regard to the current. The inhibition was expressed as percentages.
Detected current was amplified using a Digidata 1200B A/D converter and an Axopatch 1D amplifier (Axon instruments Inc.), and the data were recorded and analyzed with the aid of a computer. The inhibitory activity of each compound was expressed as a percentage relative to the capsaicin current immediately before the administration of each compound.

For test [2], the target named is T2, human vanilloid-1 (hVR1) (Homo sapiens, UniProt Q8NER1).
T2 construct: expressed in transfected cells; host or cells: HEK293 Tet-on (hVR1-HEK293), doxycycline-induced
T2 sequence (Q8NER1 whole entry): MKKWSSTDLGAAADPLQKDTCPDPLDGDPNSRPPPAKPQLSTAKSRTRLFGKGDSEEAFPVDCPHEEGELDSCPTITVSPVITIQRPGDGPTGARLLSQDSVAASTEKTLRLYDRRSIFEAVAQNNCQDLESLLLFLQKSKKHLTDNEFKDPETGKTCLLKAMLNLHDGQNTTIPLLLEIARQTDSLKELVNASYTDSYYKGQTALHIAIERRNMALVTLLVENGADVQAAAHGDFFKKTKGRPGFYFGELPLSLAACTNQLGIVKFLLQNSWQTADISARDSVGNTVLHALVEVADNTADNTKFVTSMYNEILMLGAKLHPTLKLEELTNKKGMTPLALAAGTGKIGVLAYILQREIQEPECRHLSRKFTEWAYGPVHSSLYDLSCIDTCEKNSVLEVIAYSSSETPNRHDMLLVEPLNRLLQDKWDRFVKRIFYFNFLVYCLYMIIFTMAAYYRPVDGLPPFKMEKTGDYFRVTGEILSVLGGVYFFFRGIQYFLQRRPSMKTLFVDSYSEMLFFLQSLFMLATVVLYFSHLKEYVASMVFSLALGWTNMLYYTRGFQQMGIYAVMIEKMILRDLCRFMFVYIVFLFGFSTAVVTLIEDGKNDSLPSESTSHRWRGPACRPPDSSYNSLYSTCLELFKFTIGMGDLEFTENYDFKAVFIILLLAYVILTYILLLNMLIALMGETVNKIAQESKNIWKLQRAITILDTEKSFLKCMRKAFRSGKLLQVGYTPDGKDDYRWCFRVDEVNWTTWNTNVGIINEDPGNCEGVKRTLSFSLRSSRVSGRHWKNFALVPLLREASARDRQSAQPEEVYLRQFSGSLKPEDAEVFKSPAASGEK
Briefly: Calcium influx of vanilloid receptor in hVR1-HEK293 cells (capsaicin-induced, Fluo-3/AM). The format is cell-based. The note with it: 1 μM capsaicin-induced intracellular calcium influx, read-out: Inhibitory Activity IC50. As to the method: Experiments for calcium influx were performed to measure the activity of the compounds as antagonists.
The cell strain hVR1-HEK293 is the human embryonic kidney (HEK) 293 Tet-on cell transfected with a human vanilloid-1 gene (pTRE2hyg-hVR1, 7.8 kb), which is capable of controlling the expression of VR1 according to the administration of deoxycycline, a tetracycline derivative analog. In a medium supplemented with deoxycycline two days before calcium influx experiments, the cell strain was cultured to induce the expression of VR1. After being grown to a confluency of about 80% in T75 flasks, hVR1-HEK293 was detached from the flask using trypsin. Cells harvested by centrifugation were suspended in a medium supplemented with 1 μg/mL of deoxycycline and diluted to a density of 2-4×10^5 cells/mL, after which a 100 μL aliquot of the cell suspension was added to each well of 96 well black plates. Before the measurement of calcium influx, the cells were incubated for two days at 37° C. in a 5% CO2 incubator.
For use in calcium influx experiments, each compound was dissolved in dimethyl sulfoxide (DMSO).
To measure an intracellular calcium influx, cells were incubated at 37° C. for 90 min in a medium containing the calcium indicator Fluo-3/AM so as to allow the fluorescent dye to penetrate into the cells. Then, the cells were washed three times with D-PBS (Dulbecco's phosphate buffered saline) containing 10 mM HEPES to remove the fluorescent dye which remained outside. 193 μL aliquot of D-PBS was added to each well, followed by the addition of various concentrations of compounds thereto. In order to measure the antagonistic activity of the compounds, calcium influx was induced by treatment with 1 μM capsaicin. The inhibitory effect of each compound on 1 μM capsaicin-induced intracellular calcium influx according to compound concentration was measured using a fluorescent analyzer and the data thus obtained were analyzed on the basis of the Hill's equation.
On the technique in general: A change in cytosolic calcium serves as a functional read-out for many receptors and channels.

Test [3] concerns ICR male mice (PBQ-induced writhing). Briefly: PBQ-induced writhing test for analgesic effect. The format is in vivo. The note with it: Mus musculus, 1 h, 20 mg/kg oral, one hour before intraabdominal PBQ (0.02%), read-out: % Inhibition (decrease in number of writhes compared to control). As to the method: A PBQ-induced writhing test was conducted in mice to assay for the analgesic effect of the novel compounds. Five-week-old ICR male mice were treated with PBQ (phenyl-p-quinone, 0.02%). A suspension of 20 mg of test material in 10 mL of physiological saline was used per kg of weight of mice. Test materials in combination with a carrier were orally administered one hour before the intraabdominal injection of PBQ in a dose of 10 mL per kg weight. From 5 min after the injection, individual mice in each test group were measured for numbers of writhes at regular intervals of 10 min. Analgesic effects of test compounds were expressed as percentages of the decrease in number of writhes compared to a control. [% Inhibition=(Control administered with carrier alone−Group administered with test material)/control administered with carrier alone×100]
For orientation: An intraperitoneal irritant provokes the stretching counted in writhing tests.

T1 sequence (O35433 whole entry): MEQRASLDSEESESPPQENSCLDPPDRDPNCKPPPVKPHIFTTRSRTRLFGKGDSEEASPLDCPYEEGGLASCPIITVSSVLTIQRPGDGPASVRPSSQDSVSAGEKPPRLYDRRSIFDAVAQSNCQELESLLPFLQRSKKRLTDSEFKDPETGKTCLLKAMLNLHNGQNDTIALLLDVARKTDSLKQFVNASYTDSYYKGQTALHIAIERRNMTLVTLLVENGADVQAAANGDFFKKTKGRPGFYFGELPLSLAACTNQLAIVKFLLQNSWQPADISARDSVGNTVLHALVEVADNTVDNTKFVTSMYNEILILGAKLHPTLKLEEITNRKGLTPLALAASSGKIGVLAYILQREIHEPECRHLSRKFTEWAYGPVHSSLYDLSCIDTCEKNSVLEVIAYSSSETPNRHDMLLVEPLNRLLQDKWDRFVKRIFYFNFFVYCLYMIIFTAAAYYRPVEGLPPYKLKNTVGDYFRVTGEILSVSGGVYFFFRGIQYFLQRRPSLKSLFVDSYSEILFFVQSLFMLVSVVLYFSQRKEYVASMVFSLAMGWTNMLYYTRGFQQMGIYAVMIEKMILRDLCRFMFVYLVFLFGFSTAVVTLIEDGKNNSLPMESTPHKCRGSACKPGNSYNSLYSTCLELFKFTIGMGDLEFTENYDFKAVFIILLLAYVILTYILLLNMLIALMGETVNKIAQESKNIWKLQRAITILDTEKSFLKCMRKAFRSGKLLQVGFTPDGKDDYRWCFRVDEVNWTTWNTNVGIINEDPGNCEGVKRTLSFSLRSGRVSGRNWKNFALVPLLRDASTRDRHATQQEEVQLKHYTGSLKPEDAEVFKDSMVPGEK

In turn, `FC(F)(F)c1ccc2nc(-c3ccc(-c4ccccc4)cc3)[nH]c2c1` [Compound 183, 2-biphenyl-4-yl-6-trifluoromethyl-1H-benzoimidazole] showed an inhibition at 1 µM in test [1] of 17%.

With `Clc1ccc2nc(-c3ccc(-c4ncccc4Cl)cc3)[nH]c2c1` [Compound 2, 6-chloro-2-[4-(3-chloropyridin-2-yl)phenyl]-1H-benzoimidazole], the inhibition at 1 µM in test [1] is 45%. Moreover, the IC50 in test [2] was found to be 8.57 µM.

For `Cc1ccc2nc(-c3ccc(-c4ncccc4Cl)cc3)[nH]c2c1C` [Compound 10, 2-[4-(3-chloropyridin-2-yl)phenyl]-6,7-dimethyl-1H-benzoimidazole], the inhibition at 1 µM in test [1] came out at 80%. The IC50 in test [2] turned out to be 0.114 µM.

The compound `c1cnc2[nH]c(-c3ccc(-n4cccc4)cc3)nc2c1` [Compound 179, 2-(4-pyrrol-1-ylphenyl)-3H-imidazo[4,5-b]pyridine] gave an inhibition at 1 µM in test [1] of 100%.

The compound `COc1ccc2nc(-c3ccc(Oc4ccccc4)cc3)[nH]c2c1` [Compound 194, 6-methoxy-2-(4-phenoxyphenyl)-1H-benzoimidazole] had an inhibition at 1 µM in test [1] of 30%.

In test [1], `CC(C)(C)c1ccc2nc(-c3ccc(-c4ncc(C(F)(F)F)cc4Cl)c(Cl)c3)[nH]c2c1` [Compound 121, 6-tert-butyl-2-[3-chloro-4-(3-chloro-5-trifluoromethylpyridin-2-yl)phenyl]-1H-benzoimidazole] had an inhibition at 1 µM of 76%.

Regarding `FC(F)(F)c1cc(C(F)(F)F)c2nc(-c3ccc(-c4ccccn4)c4ccccc34)[nH]c2c1` [Compound 115, 2-(4-pyridin-2-ylnaphthalen-1-yl)-4,6-bistrifluoromethyl-1H-benzoimidazole], testing at 1 µM in test [1] gave an inhibition of 71%.

With `FC(F)(F)c1cnc2nc(-c3ccc(-c4ncccc4Cl)cc3)[nH]c2c1` [Compound 8, 2-[4-(3-chloropyridin-2-yl)phenyl]-6-trifluoromethyl-1H-imidazo[4,5-b]pyridine], testing at 1 µM in test [1] gave an inhibition of 41%. The concentration for half-maximal inhibition (IC50) in test [2] was 0.031 µM.

As to `FC(F)(F)c1cccnc1-c1ccc(-c2nc3ccc(N4CCOCC4)cc3[nH]2)nc1` [Compound 169, 6′-(6-morpholin-4-yl-1H-benzoimidazo-2-yl)-3-trifluoromethyl-[2,3′]bipyridine], the inhibition in vivo at 20 mg/kg in test [3] is 57%.

As to `FC(F)(F)c1cc(Cl)c2nc(-c3ccc(-c4ncccc4C(F)(F)F)cn3)[nH]c2c1` [Compound 161, 6′-(4-chloro-6-trifluoromethyl-1H-benzoimidazole-2-yl)-3-trifluoromethyl-[2,3′]bipyridine and 6′-(5-trifluoromethyl-7-chloro-1H-benzoimidazole-2-yl)-3-trifluoromethyl-[2,3′]bipyridine], at 1 µM the inhibition in test [1] was 58%. Besides, the IC50 in test [2] amounted to 0.023 µM.

On to `FC(F)(F)c1ccc2nc(-c3ccc(-n4cccc4)cc3)[nH]c2c1` [Compound 178, 2-(4-pyrrol-1-ylphenyl]-6-trifluoromethyl-1H-benzoimidazole], for which the inhibition at 1 µM in test [1] was determined as 20%.

In turn, `FC(F)(F)c1cccnc1-c1ccc(-c2nc3ccc(Cl)cc3[nH]2)cc1` [Compound 32, 6-chloro-2-[4-(3-trifluoromethylpyridin-2-yl)phenyl]-1H-benzoimidazole] returned an inhibition at 1 µM in test [1] of 78%. Also, the IC50 in test [2] was 0.013 µM.

The compound `CC(C)(C)c1ccc2nc(-c3ccc(-c4ncccc4C(F)(F)F)cc3)[nH]c2c1` [Compound 30, 6-tert-butyl-2-[4-(3-trifluoromethylpyridin-2-yl)phenyl]-1H-benzoimidazole] displayed an inhibition at 1 µM in test [1] of 96%. For the same compound, the concentration for half-maximal inhibition (IC50) in test [2] was 0.023 µM.

`FC(F)(F)c1ccc2nc(-c3ccc(-c4ncc(Cl)cc4Cl)cn3)[nH]c2c1` [Compound 151, 3,5-dichloro-6′-(6-trifluoromethyl-1H-benzoimidazole-2-yl)-[2,3′]bipyridine] gave an inhibition at 1 µM in test [1] of 84%. Further, in test [2], the 50% inhibitory concentration (IC50) is 0.097 µM.

Consider `CC(C)(C)c1ccc2nc(-c3ccc(-n4cccc4)cc3)[nH]c2c1` [Compound 181, 6-tert-butyl-2-(4-pyrrol-1-ylphenyl]-1H-benzoimidazole], for which, in test [1], the inhibition at 1 µM came out at 40%. In addition, in test [2], the IC50 worked out at 0.221 µM.

For the compound `COc1ccc2nc(-c3ccc(-c4ncccc4Cl)cc3)[nH]c2c1` [Compound 5, 2-[4-(3-chloropyridin-2-yl)phenyl]-6-methoxy-1H-benzoimidazole], the inhibition at 1 µM in test [1] was 10%. Further, the IC50 in test [2] was found to be 6.04 µM.

For `CC(C)(C)c1ccc2nc(-c3ccc(-c4ncc(Cl)cc4Cl)cc3F)[nH]c2c1` [Compound 70, 6-tert-butyl-2-[4-(3,5-dichloropyridin-2-yl)-2-fluorophenyl]-1H-benzoimidazole], in test [1], the inhibition at 1 µM worked out at 45%.

In test [1], `Fc1ccc2nc(-c3ccc(Oc4ccccc4)cc3)[nH]c2c1` [Compound 193, 6-fluoro-2-(4-phenoxyphenyl)-1H-benzoimidazole] registered an inhibition at 1 µM of 50%.

Regarding `CC(C)(C)c1ccc2nc(-c3ccc(-c4ncccc4Cl)c(Cl)c3)[nH]c2c1` [Compound 116, 6-tert-butyl-2-[3-chloro-4-(3-chloropyridin-2-yl)phenyl]-1H-benzoimidazole], at 1 µM the inhibition in test [1] was 30%.

On to `FC(F)(F)c1ccc2nc(-c3ccc(Oc4ccccc4)cc3)[nH]c2c1` [Compound 189, 2-(4-phenoxyphenyl-6-trifluoromethyl)-1H-benzoimidazole], for which at 1 µM the inhibition in test [1] was 90%.

For `CC(C)(C)c1ccc2nc(-c3ccc(-c4ncc(Cl)cc4Cl)c(Cl)c3)[nH]c2c1` [Compound 118, 6-tert-butyl-2-[3-chloro-4-(3,5-dichloropyridin-2-yl)phenyl]-1H-benzoimidazole], 1 µM produced 93% inhibition in test [1]. Besides, the half-inhibitory concentration (IC50) in test [2] turned out to be 0.313 µM.

`CC(C)(C)c1ccc2nc(-c3ccc(-c4ccccn4)c(Cl)c3)[nH]c2c1` [Compound 126, 6-tert-butyl-2-(3-chloro-4-pyridin-2-ylphenyl)-1H-benzoimidazole] showed an inhibition at 1 µM in test [1] of 87%. Further, the IC50 in test [2] was 0.105 µM.

As for `Clc1ccc2nc(-c3ccc(Oc4ccccc4)cc3)[nH]c2c1` [Compound 191, 6-chloro-2-(4-phenoxyphenyl)-1H-benzoimidazole], the inhibition at 1 µM in test [1] amounted to 60%.

On to `FC(F)(F)c1cnc2nc(-c3ccc(-c4ncccc4C(F)(F)F)cc3)[nH]c2c1` [Compound 34, 6-trifluoromethyl-2-[4-(3-trifluoromethylpyridin-2-yl)phenyl]-1H-imidazo[4,5-b]pyridine], for which at 1 µM the inhibition in test [1] was 16%. Also, the half-maximal inhibitory concentration (IC50) in test [2] came out at 0.026 µM.

In test [1], `FC(F)(F)c1ccc2nc(-c3ccc(-c4ncccc4Cl)c4ccccc34)[nH]c2c1` [Compound 104, 2-[4-(3-chloropyridin-2-yl)naphthalen-1-yl]-6-trifluoromethyl-1H-benzoimidazole] yielded an inhibition at 1 µM of 86%. Besides, the IC50 in test [2] turned out to be 0.031 µM.

`FC(F)(F)c1ccc2nc(-c3ccc(-c4ncc(Cl)cc4Cl)c(Cl)c3)[nH]c2c1` [Compound 117, 2-[3-chloro-4-(3,5-dichloropyridin-2-yl)phenyl]-6-trifluoromethyl-1H-benzoimidazole]: at 1 µM the inhibition in test [1] was 80%. The half-inhibitory concentration (IC50) in test [2] turned out to be 0.525 µM.
